Active and inactive are the calls of the source. The rule behind the calls is not given here.
Key:
[1] = test system: K562; experiment: Cytotoxicity against human K562 cells assessed as growth inhibition after 24 hrs by MTT assay; format: functional, cell-based; settings: K562, 24 h
[2] = test system: HCT-116; experiment: Induction of apoptosis in human HCT116 assessed as increase in caspase-3 activity at 120 uM incubated for 48 hrs followed by DEVD-pNA substrate addition by caspase-3 colorimetric assay; format: functional
[3] = test system: MDA-MB-231; experiment: Induction of apoptosis in human MDA231 assessed as increase in caspase-3 activity at 120 uM incubated for 48 hrs followed by DEVD-pNA substrate addition by caspase-3 colorimetric assay; format: functional

`O=C(Nc1ccc(C(O)c2ccccc2)cc1)c1cc2ccccc2[nH]1` (stereo not given) showed an IC50 [1] greater than 100 µM.

With `CC(O)c1ccc(NC(=O)c2cc3ccccc3[nH]2)cc1` (stereo not given) the IC50 [1] was greater than 100 µM.

In the case of `O=C(c1ccccc1)c1cccc(NC(=O)c2cc3ccccc3[nH]2)c1`, the IC50 [1] is reported as greater than 100 µM.

Work on `O=C(c1ccccc1)c1ccc(NC(=O)c2cc3ccccc3[nH]2)cc1` yielded an IC50 [1] greater than 100 µM.

For `CC(=O)c1ccc(NC(=O)c2cc3ccccc3[nH]2)cc1`, the IC50 [1] was greater than 100 µM.

With `O=C(Nc1cccc(C(O)c2ccccc2)c1)c1cc2ccccc2[nH]1` (stereo not given) the IC50 [1] was greater than 100 µM, the Activity [2] was “Active” and the Activity [3] was “Active”.

In the case of `CC(O)c1cccc(NC(=O)c2cc3ccccc3[nH]2)c1` (stereo not given), the IC50 [1] is reported as greater than 100 µM.

`CC(=O)c1cccc(NC(=O)c2cc3ccccc3[nH]2)c1` gave an IC50 [1] greater than 100 µM.

— ChEMBL document CHEMBL3797044, “Computer-aided design, synthesis, and biological evaluation of new indole-2-carboxamide derivatives as PI3Kα/EGFR inhibitors” (Bioorg Med Chem Lett, 2016)
